In ChEMBL document CHEMBL1125697, “Synthesis and pharmacological examination of 1-(3-methoxy-4-methylphenyl)-2-aminopropane and 5-methoxy-6-methyl-2-aminoindan: similarities to 3,4-(methylenedioxy)methamphetamine (MDMA)” (J Med Chem, 1991):
“And” between values parts separate entries of the source, which are not always exact repeats. Identical values can stand only once.

Assays:
Format in all cases: functional
Rattus norvegicus [1] = organism: Rattus norvegicus; experiment: Effective dose was evaluated for drug discrimination in I-trained rats
Rattus norvegicus [2] = experiment: Percentage of non disrupted rats that selected the drug lever, when given at a dose of 1.00 mg/kg
Rattus norvegicus [3] = organism: Rattus norvegicus; experiment: Compound was evaluated for the uptake inhibition of [3H]-5-HT in rats
Rattus norvegicus [4] = experiment: Effective dose was evaluated for drug discrimination in I-trained rats, when given at a dose of 2.32 micro mol/kg
Rattus norvegicus [5] = experiment: Percentage of non disrupted rats that selected the drug lever, when given at a dose of 0.25 mg/kg
Rattus norvegicus [6] = experiment: Effective dose was evaluated for drug discrimination in I-trained rats, when given at a dose of 0.25 mg/kg; conditions: Rattus norvegicus; read-out: ED50
Rattus norvegicus [7] = experiment: Effective dose was evaluated for drug discrimination in I-trained rats, when given at a dose of 0.5 mg/kg
Rattus norvegicus [8] = experiment: Percentage of non disrupted rats that selected the drug lever, when given at a dose of 0.5 mg/kg
Rattus norvegicus [9] = experiment: Percentage of non disrupted rats that selected the drug lever, when given at a dose of 1.50 mg/kg; conditions: dose 1.5 mg/kg
Rattus norvegicus [10] = experiment: Effective dose was evaluated for drug discrimination in I-trained rats, when given at a dose of 1.16 micro mol/kg

With `C[C@H](N)Cc1ccccc1` [DEXTROAMPHETAMINE] the ED50 (Rattus norvegicus [1]) was 0.31 mg/kg and 1.69 µmol/kg.
With `CNC(C)Cc1ccc2c(c1)OCO2` (configuration not stated) [MIDOMAFETAMINE] the ED50 (Rattus norvegicus [1]) was 0.64 mg/kg and 2.79 µmol/kg.
For `COc1cc(C[C@@H](C)N)ccc1C`, the SDL (Rattus norvegicus [2]) was 75%, the IC50 (Rattus norvegicus [3]) was 200 nM and the ED50 (Rattus norvegicus [4]) was 2.12 µmol/kg. The SDL (Rattus norvegicus [5]) was 33%, the ED50 (Rattus norvegicus [6]) was 0.46 mg/kg and the ED50 (Rattus norvegicus [7]) was 0.46 mg/kg. The SDL (Rattus norvegicus [8]) was 38%, the SDL (Rattus norvegicus [9]) was 100% and the ED50 (Rattus norvegicus [10]) was 2.12 µmol/kg.
In the case of `CC[C@@H](Cc1ccc2c(c1)OCO2)NC`, the ED50 (Rattus norvegicus [1]) is reported as 0.79 mg/kg and 3.25 µmol/kg.
